This note sets out measurements from US20190117555A1, “SUBLINGUAL COMPOSITIONS COMPRISING NATURAL EXTRACTS AND USES THEREOF” (HARMONIC PHARMA, priority 2016, published 2019).

In general, inhibition refers to how much of the control response was suppressed.

Assay [1] can be described thus: Oxygen Radical Absorbance Capacity (ORAC) assay. The note with it: n=4. The source says: 2.3. Oxygen Radical Absorbance Capacity (ORAC) Assay
(Ou B., Hampsch-Woodill M. and Prior R. L.: “Development and Validation of an Improved Oxygen Radical Absorbance Capacity Assay Using Fluorescein as the Fluorescent Probe”, J. Agric. Food Chem., 2001, 49 (10), 4619-4626)
Measurement of antioxidant capacity by the ORAC method is based on the detection of fluorescence drop of fluorescein (FL) thanks to its reaction with peroxyl radical ROO*, in a food matrix containing antioxidant compounds. Fluorescence was read with an excitation wavelength of 485 nm and an emission filter of 528 nm. AAPH solution and FL were prepared in a phosphate buffer solution at 75 mM at pH 7.4. The control of this reaction is the trolox which is also prepared in the same buffer. Six different quantities (10, 20, 35, 50, 70, 80 μl) of product with concentration of 0.5 mg/L were placed in the wells of the microplate with FL and adjusted at the same volume with buffer solution (80 μl). The mixture was preincubated for 30 min at 37° C., before rapidly adding the AAPH solution (220 μl) using a multichannel pipette. The microplate was immediately placed in the reader and the fluorescence recorded every 6 min for 240 min. A blank with FL and AAPH using sodium phosphate buffer instead of the antioxidant solution was used. The inhibition capacity was expressed as reference compound equivalents (μM), and is quantified by integrating of the area under the curve (AUC) of the fluorescein. The assays were carried out in quadruplicate (n=4). Efficacy of the tested samples is expressed as reference ORAC units per gram of products (the higher value corresponds to the stronger antioxidant activity).

The subject of another assay is IL-1β. The experiment in a line: IL-1β release by LPS-stimulated PBMCs (HTRF). It is filed as cell-based. Conditions: Homo sapiens, PBMC, 5 μg/mL LPS, 24 h, read-out: % inhibition IL-1β (Standard deviation). The procedure: (§1) Interleukin-1beta (IL-1beta) and tumor necrosis factor-alpha (TNF-alpha) mediate the development of numerous inflammatory diseases. IL-1beta and TNF-alpha therefore constitute suitable biomarkers to characterize the anti-inflammatory property of compounds of the part of branch extracts of the invention.
(§2) Peripheral blood mononuclear cells (PBMCs) were prepared from the peripheral blood of healthy donors (Etablissement Français du Sang) according to Kümmerle et al. (J Med Chem. 2012, 55, 7525-7545) with slight modifications. PBMCs were isolated using Histopaque gradient (Sigma), washed in Hanks' balanced salt solution (Sigma) and were then cultured in RPMI-1640 medium (Sigma) supplemented with 10% (v/v) fetal bovine serum (FBS) (PAA), 100 U/mL penicillin and 100 μg/mL streptomycin (PAA). PBMCs were seeded into 96-well plates (8×10^4 cells/well) and stimulated with 5 μg/mL LPS (Lipopolysaccharides, Sigma), into a total volume of 120 μL per well. HMR was re-suspended in DMSO and tested at 10, 30, and 100 μM (DMSO 1%) in duplicate. […] Cells incubation was realized at 37° C. (5% CO2).
(§3) After 24 h, PBMCs supernatants were transferred into a 384-well plate. Cytokine detection was performed using HTRF technology (Cisbio bioassays) for TNF-α (62TNFPEC), IL-1β (62IL1PEC) according to supplier recommendations. Reading was performed after 3 h of incubation using Envision multi-labelled reader (PerkinElmer) using supplier recommended parameters.
(Time-resolved FRET reads energy transfer from a long-lived donor to a nearby acceptor.)

The nature of assay [2]: Total AntiOxidant Power (PAOT) assay. The note with it: for total antioxidant efficacy (PAOT): n=4, FIG. 3 and 4. On the procedure:
2.4. Total AntiOxidant Power (PAOT®) Assay (Oxidative Stress)
Technology PAOT/POT® (Total AntiOxidant Power/Total Oxidant Power) is based on the electrochemical nature of redox reactions: a balance between antioxidants and oxidants [www.ie-antioxydants.com]. The assays were carried out in quadruplicate (n=4) (The higher value corresponds to the best antioxidant efficacy).

The next assay has as its system TNF-α. Put plainly: TNF-α release by LPS-stimulated PBMCs (HTRF). It is filed as cell-based. The note with it: Homo sapiens, PBMC, 5 μg/mL LPS, 24 h, read-out: % inhibition TNF-α (Standard deviation). On the procedure: as §1, §2, §3
For another assay, the target named is T1, Human 5-LO (Homo sapiens, UniProt P09917).
T1 sequence (P09917 1-674): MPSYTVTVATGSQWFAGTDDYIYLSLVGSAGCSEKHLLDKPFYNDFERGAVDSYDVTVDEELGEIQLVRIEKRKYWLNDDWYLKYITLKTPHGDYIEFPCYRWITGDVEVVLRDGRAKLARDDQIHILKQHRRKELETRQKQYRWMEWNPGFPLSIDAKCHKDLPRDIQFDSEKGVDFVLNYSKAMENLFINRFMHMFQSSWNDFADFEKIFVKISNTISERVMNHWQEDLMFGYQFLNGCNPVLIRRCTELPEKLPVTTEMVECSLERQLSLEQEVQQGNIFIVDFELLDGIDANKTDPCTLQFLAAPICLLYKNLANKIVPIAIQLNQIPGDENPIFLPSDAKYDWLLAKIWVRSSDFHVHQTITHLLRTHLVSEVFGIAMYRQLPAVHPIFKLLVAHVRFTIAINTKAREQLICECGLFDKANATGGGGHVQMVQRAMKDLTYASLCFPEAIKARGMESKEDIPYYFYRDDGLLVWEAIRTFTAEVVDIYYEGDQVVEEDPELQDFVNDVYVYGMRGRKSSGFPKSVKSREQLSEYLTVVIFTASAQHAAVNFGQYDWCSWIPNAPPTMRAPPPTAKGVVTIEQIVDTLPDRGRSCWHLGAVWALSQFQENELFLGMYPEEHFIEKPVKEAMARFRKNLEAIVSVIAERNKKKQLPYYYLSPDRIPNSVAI
Put plainly: Human 5-LO inhibition assay. The note with it: HMR 10 μM; extract equiv. 10 μM. The format is biochemical.

Another assay has as its target T2, Human COX-2 (Homo sapiens, UniProt P35354).
T2 sequence (P35354 18-604): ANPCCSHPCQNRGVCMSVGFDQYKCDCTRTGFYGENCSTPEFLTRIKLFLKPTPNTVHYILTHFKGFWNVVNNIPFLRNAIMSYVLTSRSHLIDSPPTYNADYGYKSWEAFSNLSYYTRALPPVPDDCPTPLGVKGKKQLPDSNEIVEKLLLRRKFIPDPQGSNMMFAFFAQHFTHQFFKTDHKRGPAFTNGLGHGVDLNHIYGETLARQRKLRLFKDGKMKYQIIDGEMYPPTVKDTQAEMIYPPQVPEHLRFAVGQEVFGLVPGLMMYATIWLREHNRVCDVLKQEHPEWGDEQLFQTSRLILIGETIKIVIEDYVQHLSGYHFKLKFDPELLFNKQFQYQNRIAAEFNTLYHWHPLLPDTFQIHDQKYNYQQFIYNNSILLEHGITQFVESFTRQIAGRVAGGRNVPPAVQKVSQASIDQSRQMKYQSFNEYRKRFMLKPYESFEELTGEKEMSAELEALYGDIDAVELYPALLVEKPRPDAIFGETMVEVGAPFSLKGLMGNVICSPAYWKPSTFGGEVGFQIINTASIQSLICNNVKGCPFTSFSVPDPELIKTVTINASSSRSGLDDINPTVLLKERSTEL
Put plainly: Human COX-2 inhibition assay. The format is biochemical. The note with it: HMR 10 μM; extract equiv. 10 μM. The source says:
The results are expressed as a percent inhibition of the control enzyme activity.

Assay [3] can be described thus: Trolox Equivalent Antioxidant Capacity (TEAC) assay. The note with it: per 1 g of product; FIG. 2.
Description: Trolox Equivalent Antioxidant Capacity (TEAC) Assay
ABTS radical cation (ABTS•+) was produced by reacting 7 mM ABTS stock solution with 2.45 mM potassium persulfate and allowing the mixture to stand in the dark at room temperature for 12-16 h before being used. Next ABTS•+solution was diluted with PBS (Phosphate Buffer Saline) (pH 7.4) to an absorbance of 0.5 at 734 nm and equilibrated at 30° C. 200 μl of ABTS•+ and (10, 20, 35, 50, 70, 80 μl) of product solutions (0.5 mg/L) was mixed and adjusted to 300 μl with buffer solution. After 15 min incubation, the optical density was measured. The assays were performed in quadruplicate (n=4). Efficacy is expressed as a value of EC50 (the smaller value of EC50 corresponds to the stronger antioxidant activity).

Description for Human 5-LO: Human 5-LO Inhibition Assay:
The test compound, reference compound or water (control) were preincubated for 5 min at room temperature with 10^4 lysed cells/well in a buffer containing 50 mM Tris-HCl (pH 7.4), 5 mM CaCl2, 2 mM EDTA, 1 μM ATP and 50 nM fluorescent probe dihydrorhodamine 123. The fluorescence intensity was then measured at λex=485 nm and λem=535 nm using a microplate reader (Envision, Perkin Elmer). This measurement at t=0 allowed the detection of any compound interference with the fluorimetric detection method at these wavelengths. Thereafter, the reaction was initiated by adding 25 μM of the substrate arachidonic acid and the mixture was incubated for 20 min at room temperature. The reaction was stopped by adding a buffer containing 67% acetonitrile and 0.2% acetic acid and the fluorescence intensity emitted by the reaction product rhodamine 123 was measured at the same wavelengths (t=20). The enzyme activity was determined by subtracting the signal measured at t=0 from that measured at t=20.
The results are expressed as a percent inhibition of the control activity.

On to `COc1cc(C[C@H]2C(=O)OC[C@@H]2[C@H](O)c2ccc(O)c(OC)c2)ccc1O` (stereo in doubt) [HMR, Hydroxymatairesinol], for which the “μmol Trolox/g tested product” value in assay [1] is on record as 210 ± 50 μmol Trolox/g tested product. Further, the “μmol Vit. C/g tested product” value in assay [1] was 110 ± 10 μmol Vit. C/g tested product. Also, the “μmol Vit. E/g tested product” value in assay [1] is 105 ± 10 μmol Vit. E/g tested product. Moreover, the “μmol β-carotene/g tested product” value in assay [1] is 27 ± 2 μmol β-carotene/g tested produ. Further, the inhibition at 10 µM in the assay on IL-1β (10 μM) came out at 10%; in the assay with TNF-α (10 μM), 7%; on Human 5-LO it was 14.7%; on Human COX-2, 18.7%. Moreover, the figures for the inhibition at 30 µM in the assay on IL-1β (30 μM) and with TNF-α (30 μM) were 25% and 15%, respectively. For the same compound, the values for the inhibition at 100 µM in the assay with IL-1β (100 μM) and in the assay with TNF-α (100 μM) were 28% and 26%, respectively. For the same compound, the “total antioxidant efficacy (PAOT)” value in assay [2] is 4.99 mmol/g equivalent of antioxidant. The “antioxidant activity with regard to Trolox” value in assay [2] (reference Trolox) was 0.62 gram of reference compound per gram of tested product. Moreover, the “antioxidant activity with regard to Vitamin E” value in assay [2] (reference Vitamin E (tocopherol)) is 1.07 gram of reference compound per gram of tested product. In addition, in assay [2] (reference β-carotene), the “antioxidant activity with regard to β-carotene” value is 2.68 gram of reference compound per gram of tested product.

For `OC[C@H](Cc1cccc(O)c1)[C@H](CO)Cc1cccc(O)c1` [enterodiol], in assay [3], the “antioxidant activity of 1 g of product equivalent to g of trolox” value turned out to be 0.15 g and the “antioxidant activity of 1 g of product equivalent to g of vitamin E” value is 0.22 g. Further, in assay [1], the “μmol Trolox/g tested product” value is 500 ± 60 μmol Trolox/g tested product, the “μmol Vit. C/g tested product” value was 700 ± 100 μmol Vit. C/g tested product, the “μmol Vit. E/g tested product” value is on record as 600 ± 80 μmol Vit. E/g tested product and the “μmol β-carotene/g tested product” value is reported as 165 ± 5 μmol β-carotene/g tested produ. Besides, the “total antioxidant efficacy (PAOT)” value in assay [2] was 1.07 mmol/g equivalent of antioxidant.

For the compound `O=C1OC[C@H](Cc2cccc(O)c2)[C@H]1Cc1cccc(O)c1` [enterolactone], in assay [3], the “antioxidant activity of 1 g of product equivalent to g of trolox” value was 0.13 g and the “antioxidant activity of 1 g of product equivalent to g of vitamin E” value came out at 0.19 g. In addition, in assay [1], the “μmol Trolox/g tested product” value is 560 ± 50 μmol Trolox/g tested product, the “μmol Vit. C/g tested product” value is 110 ± 10 μmol Vit. C/g tested product, the “μmol Vit. E/g tested product” value was 105 ± 10 μmol Vit. E/g tested product and the “μmol β-carotene/g tested product” value is given as 30 ± 2 μmol β-carotene/g tested produ. Further, the “total antioxidant efficacy (PAOT)” value in assay [2] is reported as 1.06 mmol/g equivalent of antioxidant.
